{"source": "patent US20090318469A1", "about": "“Use of Flibanserin for the Treatment of Sexual Disorders in Females” (Boehringer Ingelheim International GmbH, priority 2006, published 2009)", "key": {"[1]": {"test_system": "Sexual Disorders and/or Dysfunctions", "test": "studies of female patients suffering from Sexual Disorders", "assay_type": "in vivo", "settings": "free base or acceptable derivative, qualitative"}, "5-HT1A receptor": {"target": "T1, 5-HT1A receptor (Homo sapiens, UniProt P08908)", "T1 sequence (P08908 1-422)": "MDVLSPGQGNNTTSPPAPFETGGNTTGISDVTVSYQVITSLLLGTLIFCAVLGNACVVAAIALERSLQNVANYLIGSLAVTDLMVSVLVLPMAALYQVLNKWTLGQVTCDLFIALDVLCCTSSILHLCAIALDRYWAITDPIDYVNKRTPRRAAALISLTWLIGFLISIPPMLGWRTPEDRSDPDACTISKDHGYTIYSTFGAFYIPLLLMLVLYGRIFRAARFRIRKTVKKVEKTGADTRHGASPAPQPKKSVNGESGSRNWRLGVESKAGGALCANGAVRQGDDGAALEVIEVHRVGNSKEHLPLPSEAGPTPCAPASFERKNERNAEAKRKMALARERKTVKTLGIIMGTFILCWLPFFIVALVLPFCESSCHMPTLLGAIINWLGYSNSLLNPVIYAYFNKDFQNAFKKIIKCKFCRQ", "settings": "background statement, qualitative; cited from earlier work"}, "5-HT2-receptor": {"test_system": "5-HT2-receptor", "settings": "background statement, qualitative; cited from earlier work"}}, "data": [{"smiles": "O=c1[nH]c2ccccc2n1CCN1CCN(c2cccc(C(F)(F)F)c2)CC1", "note": "[Flibanserin, 1-[2-(4-(3-trifluoromethyl-phenyl)piperazin-1-yl)ethyl]-2,3-dihydro-1H-benzimidazol-2-one]", "values": [{"measurement": "effect on Sexual Disorders and/or Dysfunctions", "setting": "[1]", "value": "positive effect"}, {"measurement": "affinity for the 5-HT1A receptor", "setting": "5-HT1A receptor", "value": "shows affinity"}, {"measurement": "affinity for the 5-HT2-receptor", "setting": "5-HT2-receptor", "value": "shows affinity"}]}]}
